Molecules are shown by their SMILES.

This test deals with T1, GABAB receptor (GABABR1a/GABABR2 heterodimer) (Homo sapiens, UniProt O75899+Q9UBS5).
T1 construct: expressed in transfected cells
T1 sequence (Q9UBS5 15-961 limits assumed): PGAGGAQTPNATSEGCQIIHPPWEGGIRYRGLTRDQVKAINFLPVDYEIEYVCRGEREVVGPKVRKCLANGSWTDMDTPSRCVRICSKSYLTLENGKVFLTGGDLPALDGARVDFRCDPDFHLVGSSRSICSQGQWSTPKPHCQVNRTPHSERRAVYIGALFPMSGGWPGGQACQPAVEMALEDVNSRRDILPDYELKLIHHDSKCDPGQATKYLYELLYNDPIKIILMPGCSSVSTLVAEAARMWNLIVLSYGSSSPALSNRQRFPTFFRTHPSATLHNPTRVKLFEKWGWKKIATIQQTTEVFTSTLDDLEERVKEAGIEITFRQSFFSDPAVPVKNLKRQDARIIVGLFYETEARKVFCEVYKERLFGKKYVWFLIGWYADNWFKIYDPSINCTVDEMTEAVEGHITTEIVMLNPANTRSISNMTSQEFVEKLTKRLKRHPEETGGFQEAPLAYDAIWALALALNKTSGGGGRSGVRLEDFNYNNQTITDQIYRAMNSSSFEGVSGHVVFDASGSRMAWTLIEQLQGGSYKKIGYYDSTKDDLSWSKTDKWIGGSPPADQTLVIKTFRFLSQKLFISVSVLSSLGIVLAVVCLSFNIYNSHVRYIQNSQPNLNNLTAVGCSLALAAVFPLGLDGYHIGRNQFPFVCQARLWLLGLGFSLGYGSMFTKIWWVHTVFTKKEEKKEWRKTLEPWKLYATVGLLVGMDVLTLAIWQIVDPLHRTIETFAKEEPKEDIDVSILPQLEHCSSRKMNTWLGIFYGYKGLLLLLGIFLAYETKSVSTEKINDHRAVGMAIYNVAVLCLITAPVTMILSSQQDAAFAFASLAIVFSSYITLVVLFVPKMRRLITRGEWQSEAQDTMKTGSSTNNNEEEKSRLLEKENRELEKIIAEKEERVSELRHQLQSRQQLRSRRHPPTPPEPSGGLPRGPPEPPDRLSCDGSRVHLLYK
T1 sequence (O75899 42-941): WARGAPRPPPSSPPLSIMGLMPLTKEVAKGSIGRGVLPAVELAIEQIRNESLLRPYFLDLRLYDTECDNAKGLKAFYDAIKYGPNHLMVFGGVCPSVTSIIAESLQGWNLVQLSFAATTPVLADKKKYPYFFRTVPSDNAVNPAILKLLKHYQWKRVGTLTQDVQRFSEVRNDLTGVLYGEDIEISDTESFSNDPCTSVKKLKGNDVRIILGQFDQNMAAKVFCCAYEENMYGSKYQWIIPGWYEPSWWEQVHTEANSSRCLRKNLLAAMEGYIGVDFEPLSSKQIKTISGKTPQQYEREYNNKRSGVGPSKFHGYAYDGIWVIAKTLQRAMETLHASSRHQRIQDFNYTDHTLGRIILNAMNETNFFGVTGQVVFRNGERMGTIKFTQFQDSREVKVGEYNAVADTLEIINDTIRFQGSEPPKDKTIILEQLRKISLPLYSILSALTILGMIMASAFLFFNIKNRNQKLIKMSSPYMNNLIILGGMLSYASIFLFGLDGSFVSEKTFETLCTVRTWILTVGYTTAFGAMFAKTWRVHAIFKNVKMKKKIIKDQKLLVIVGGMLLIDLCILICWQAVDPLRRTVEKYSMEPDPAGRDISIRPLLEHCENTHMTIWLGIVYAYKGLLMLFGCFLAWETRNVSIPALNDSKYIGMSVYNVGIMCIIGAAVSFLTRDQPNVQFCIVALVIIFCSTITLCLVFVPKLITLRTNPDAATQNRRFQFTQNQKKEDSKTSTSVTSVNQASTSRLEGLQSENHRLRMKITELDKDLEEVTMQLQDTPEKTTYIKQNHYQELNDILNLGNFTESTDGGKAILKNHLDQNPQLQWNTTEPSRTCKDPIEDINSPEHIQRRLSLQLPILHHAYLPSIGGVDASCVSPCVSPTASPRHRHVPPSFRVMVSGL
Kind of test: [35S]-GTPγS binding assay, potency of PAM (GABA dose-response curves with and without test compound). Particulars: potency of the positive allosteric modulator; GABA dose-response in presence of test compound. Format: biochemical. From the text:
GABABR1a and GABABR2 were cloned from human brain cDNA and subcloned into pCI-Neo (Promega) and pALTER-1 (Promega), respectively. A GABABR1a-Gαqi5 fusion protein expression vector was constructed using the pCI-Neo-GABABR1a cDNA plasmid and pLEC1-Gαqi5 (Molecular Devices, CA). In order to make the Gαqi5 pertussis toxin insensitive, Cys356 was mutated to Gly using standard PCR methodology with the primers 5′-[…]-3′ (forward) and 5′-GCGGCCG […]-3′ (reverse). The Gαqi5mut cDNA was ligated into the BamHI and NotI sites of pcDNA3.0 (Invitrogen). The GABAB R1a coding sequence was amplified by PCR from pCI-Neo-GABABR1a using the primers, 5′-[…]-3′ (forward) and 5′-[…]-3′ (reverse) and subcloned into the BamHI site of pcDNA3.0-Gαqi5mut.
For generation of a cell line expressing the GABABR1a/GABABR2 heterodimer, GABABR1a plasmid DNA (4 μg) GABABR2 plasmid DNA (4 μg) and lipofectamine (24 μl) were mixed in 5 ml OptiMEM and incubated for 45 minutes at room temperature. The cells were exposed to the transfection medium for 5 hours, which then was replaced with culture medium. The cells were cultured for an additional 10 days before selection agents (300 μg/ml hygromycin and 400 μg/ml geneticin) were added. Twenty-four days after transfection, single cell sorting into 96-well plates by flow cytometry was performed using a FACS Vantage SE (Becton Dickinson, Palo Alto, Calif.). After expansion, the GABAB receptor functional response was tested using the FLIPR assay described below. The clone with the highest functional response was collected, expanded and then subcloned by single cell sorting. The clonal cell line with the highest peak response in the FLIPR was used in the present study.
For generation of a stable cell line expressing GABABR1a-Gαqi5 fusion protein and GABABR2, GABABR1a-Gαqi5mut plasmid DNA (8 μg) GABABR2 plasmid DNA (8 μg) and lipofectamine (24 μl) were mixed in 5 ml OptiMEM and incubated for 45 minutes at room temperature. The cells were exposed to the transfection medium for 5 hours, which then was replaced with culture medium. After forty-eight hours, the cells were detached and seeded in 6 well plates (2000 cells/well) and grown in culture medium supplemented with geneticin (400 μg/ml) and zeocin (250 μg/ml). After 4 days, cells from single colonies were collected and transferred to a 24-well plate. After 10 days, the cell clones were seeded in T-25 flasks and grown for another 16 days before they were tested for GABAB receptor mediated functional response. […] The clonal cell line that gave the highest peak response in the FLIPR was used in the present study.
[^35S]-GTPγS binding assays were performed at 30° C. for 45 min in membrane buffer (100 mM NaCl, 5 mM MgCl2, 1 mM EDTA, 50 mM HEPES, pH 7.4) containing 0.025 μg/μl of membrane protein (prepared from the cell lines described above) with 0.01% bovine serum albumin (fatty acid free), 10 μM GDP, 10 μM DTT and 0.53 nM [^35S]-GTPγS (Amersham-Pharmacia Biotech) in a final volume of 200 μl. Non-specific binding was determined in the presence of 20 μM GTPγS. The reaction was started by the addition of GABA at concentration between 1 mM and 0.1 nM in the presence or absence of the required concentration of PAM. The reaction was terminated by addition of ice-cold wash buffer (50 mM Tris-HCl, 5 mM MgCl2, 50 mM NaCl, pH 7.4) followed by rapid filtration under vacuum through Printed Filtermat A glass fiber filters (Wallac) (0.05% PEI treated) using a Micro 96 Harvester (Skatron Instruments). The filters were dried for 30 min at 50° C., then a paraffin scintillant pad was melted onto the filters and the bound radioactivity was determined using a 1450 Microbeta Trilux (Wallac) scintillation counter.
GABA dose-response curves in the presence and absence of test compounds were constructed using the 4-parameter logistic equation, y=ymax+((ymin−ymax)/1+(x/C)^D), where C=EC50 and D=slope factor.
Take `CCc1nc2c(c(=O)n(Cc3ccc(Cl)cc3)c(=O)n2Cc2ccc(OC(F)F)cc2)n1C` [Example 19, 1-(4-Chlorobenzyl)-3-[4-(difluoromethoxy)benzyl]-8-ethyl-7-methyl-3,7-dihydro-1H-purine-2,6-dione]: the EC50 came to 3.7 µM.

`CCCn1c(=O)n(Cc2ccc(Cl)cc2)c(=O)c2c1nc(Br)n2C` [Example 95, 8-bromo-1-(4-chlorobenzyl)-7-methyl-3-propyl-3,7-dihydro-1H-purine-2,6-dione]: the EC50 came to 4.5 µM.

In the case of `CCCn1c(=O)n(Cc2ccc(Br)cc2)c(=O)c2c1nc(CC)n2C` [Example 61, 1-(4-Bromobenzyl)-8-ethyl-7-methyl-3-propyl-3,7-dihydro-1H-purine-2,6-dione], the EC50 was found to be 4.2 µM.

`CCc1nc2c(c(=O)n(Cc3ccc(Cl)cc3)c(=O)n2CCC(F)(F)F)n1C` [Example 75]: the EC50 amounted to 3.5 µM.

For the molecule `CCc1nc2c(c(=O)n(Cc3ccc(Cl)cc3)c(=O)n2CC(=O)C(C)(C)C)n1C` [Example 4, 1-(4-Chlorobenzyl)-3-(3,3-dimethyl-2-oxobutyl)-8-ethyl-7-methyl-3,7-dihydro-1H-purine-2,6-dione], the EC50 was determined as 1.6 µM.

As for `CCc1nc2c(c(=O)n(Cc3ccc(Cl)cc3)c(=O)n2CCCOC(C)(C)C)n1C` [Example 21, 3-(3-tert-butoxypropyl)-1-(4-chlorobenzyl)-8-ethyl-7-methyl-3,7-dihydro-1H-purine-2,6-dione], the EC50 is 7.2 µM.

As to `CCc1nc2c(c(=O)n(Cc3ccc(Cl)cc3)c(=O)n2Cc2ccccn2)n1C` [Example 15, 1-(4-Chlorobenzyl)-8-ethyl-7-methyl-3-(pyridin-2-ylmethyl)-3,7-dihydro-1H-purine-2,6-dione], the EC50 is 7.8 µM.

Turning to `CCc1nc2c(c(=O)n(Cc3ccc(Cl)cc3)c(=O)n2CC(=O)OC(C)(C)C)n1C` [Example 35, tert-butyl [1-(4-chlorobenzyl)-8-ethyl-7-methyl-2,6-dioxo-1,2,6,7-tetrahydro-3H-purin-3-yl]acetate], the EC50 came out at 5.6 µM.

As for `CCc1nc2c(c(=O)n(Cc3ccc(Cl)c(Cl)c3)c(=O)n2CC[Si](C)(C)C)n1C` [Example 43, 1-(3,4-Dichlorobenzyl)-8-ethyl-7-methyl-3-[2-(trimethylsilyl)ethyl]-3,7-dihydro-1H-purine-2,6-dione], the EC50 stood at 2.7 µM.

Take `CCc1nc2c(c(=O)n(Cc3ccc(Cl)cc3)c(=O)n2CCO[Si](C)(C)C(C)(C)C)n1C` [Example 29, 3-(2-{[tert-butyl(dimethyl)silyl]oxy}ethyl)-1-(4-chlorobenzyl)-8-ethyl-7-methyl-3,7-dihydro-1H-purine-2,6-dione]: the EC50 was 8.6 µM.

Regarding `CCc1nc2c(c(=O)n(Cc3ccc(Cl)cc3)c(=O)n2CC2OCCO2)n1C` [Example 14, 1-(4-Chlorobenzyl)-3-(1,3-dioxolan-2-ylmethyl)-8-ethyl-7-methyl-3,7-dihydro-1H-purine-2,6-dione], the EC50 is 12.3 µM.

Consider `CCCn1c(=O)n(Cc2ccc(OCc3ccccc3)cc2)c(=O)c2c1nc(CC)n2C` [Example 56, 1-[4-(Benzyloxy)benzyl]-8-ethyl-7-methyl-3-propyl-3,7-dihydro-1H-purine-2,6-dione], for which the EC50 came to 15 µM.

With `CCCn1c(=O)n(Cc2ccc(Cl)cc2)c(=O)c2c1nc(N(C)C)n2C` [Example 82, 1-(4-chlorobenzyl)-8-(dimethylamino)-7-methyl-3-propyl-3,7-dihydro-1H-purine-2,6-dione], the EC50 was found to be 5.6 µM.

With `CCC(=O)Cn1c(=O)n(Cc2ccc(Cl)cc2)c(=O)c2c1nc(CC)n2C` [Example 33, 1-(4-chlorobenzyl)-8-ethyl-7-methyl-3-(2-oxobutyl)-3,7-dihydro-1H-purine-2,6-dione], the EC50 was 3.7 µM.

On to `CCc1nc2c(c(=O)n(Cc3ccc(Cl)cc3)c(=O)n2C[C@@H]2CCC(=O)N2)n1C` [Example 10, 1-(4-Chlorobenzyl)-8-ethyl-7-methyl-3-{[(2S)-5-oxopyrrolidin-2-yl]methyl}-3,7-dihydro-1H-purine-2,6-dione], for which the EC50 was 14.6 µM.

Regarding `CCCn1c(=O)n(Cc2ccc(OC)cc2)c(=O)c2c1nc(CC)n2C` [Example 69, 8-Ethyl-1-(4-methoxybenzyl)-7-methyl-3-propyl-3,7-dihydro-1H-purine-2,6-dione], the EC50 was 19.7 µM.

As for `CCc1nc2c(c(=O)n(Cc3ccc(Cl)cc3)c(=O)n2CCn2cccc2)n1C` [Example 37, 1-(4-chlorobenzyl)-8-ethyl-7-methyl-3-[2-(1H-pyrrol-1-yl)ethyl]-3,7-dihydro-1H-purine-2,6-dione], the EC50 is 1.7 µM.

As for `COc1nc2c(c(=O)n(Cc3ccc(Cl)cc3)c(=O)n2CCC(F)(F)F)n1C` [Example 80, 1-(4-chlorobenzyl)-8-methoxy-7-methyl-3-(3,3,3-trifluoropropyl)-3,7-dihydro-1H-purine-2,6-dione], the concentration for a half-maximal effect (EC50) is 5.2 µM.

With `CCc1nc2c(c(=O)n(Cc3ccc(Cl)cc3)c(=O)n2CC(OC)OC)n1C` [Example 52, 1-(4-chlorobenzyl)-3-(2,2-dimethoxyethyl)-8-ethyl-7-methyl-3,7-dihydro-1H-purine-2,6-dione], the EC50 worked out at 8.8 µM.

Turning to `CCCn1c(=O)n(Cc2ccc(Cl)cc2)c(=O)c2c1nc(N1CCN(C)CC1)n2C` [Example 87, 1-(4-chlorobenzyl)-7-methyl-8-(4-methylpiperazin-1-yl)-3-propyl-3,7-dihydro-1H-purine-2,6-dione], the EC50 was determined as 15.6 µM.

Turning to `CCc1nc2c(c(=O)n(Cc3ccc(Cl)c(Cl)c3)c(=O)n2CC(=O)[C@]23C[C@@H]4C[C@H](C[C@@H](C4)C2)C3)n1C` [Example 42, 3-{2-[(3S,5S,7S)-Adamantan-1-yl]-2-oxoethyl}-1-(3,4-dichlorobenzyl)-8-ethyl-7-methyl-3,7-dihydro-1H-purine-2,6-dione], the EC50 was determined as 11.3 µM.

With `CCc1nc2c(c(=O)n(Cc3ccc(Cl)cc3)c(=O)n2CC(=O)N(C(C)C)C(C)C)n1C` [Example 51, 2-[1-(4-Chlorobenzyl)-8-ethyl-7-methyl-2,6-dioxo-1,2,6,7-tetrahydro-3H-purin-3-yl]-N,N-diisopropylacetamide], the EC50 came out at 11.9 µM.

As to `CCCn1c(=O)n(Cc2ccc(F)cc2)c(=O)c2c1nc(OC)n2C` [Example 79, 1-(4-Fluorobenzyl)-8-methoxy-7-methyl-3-propyl-3,7-dihydro-1H-purine-2,6-dione], the EC50 stood at 14.5 µM.

Consider `CCCn1c(=O)n(Cc2ccc(Cl)cc2)c(=O)c2c1nc(N1CCC[C@H]1COC)n2C` [Example 93, 1-(4-chlorobenzyl)-8-[(2S)-2-(methoxymethyl)pyrrolidin-1-yl]-7-methyl-3-propyl-3,7-dihydro-1H-purine-2,6-dione], for which the EC50 was 7.2 µM.

Take `CCc1nc2c(c(=O)n(Cc3ccc(Cl)c(Cl)c3)c(=O)n2CCC(C)(C)C)n1C` [Example 41, 1-(3,4-Dichlorobenzyl)-3-(3,3-dimethylbutyl)-8-ethyl-7-methyl-3,7-dihydro-1H-purine-2,6-dione]: the EC50 came to 2 µM.

For the molecule `CCCn1c(=O)n(Cc2cccc(Cl)c2)c(=O)c2c1nc(CC)n2C` [Example 67, 1-(3-Chlorobenzyl)-8-ethyl-7-methyl-3-propyl-3,7-dihydro-1H-purine-2,6-dione], the EC50 was found to be 15.1 µM.

Consider `CCCn1c(=O)n(Cc2ccc3nsnc3c2)c(=O)c2c1nc(CC)n2C` [Example 64, 1-(2,1,3-Benzothiadiazol-5-ylmethyl)-8-ethyl-7-methyl-3-propyl-3,7-dihydro-1H-purine-2,6-dione], for which the EC50 was 11.1 µM.

(Values after patent publication US20090023704A1, “Novel Compounds 737” (ASTRAZENECA AB, priority 2007, published 2009).)
